# Measurements as given in PMC3287420 (Nature chemical biology, 2011).
# Columns and labels:
# [1] = target: T1, GST-LRRK2 [A2016T] (1326-2517) (Homo sapiens, UniProt Q5S007, A2016T); conditions: cited from earlier work
# T1 sequence (Q5S007 1326-2527 A2016T): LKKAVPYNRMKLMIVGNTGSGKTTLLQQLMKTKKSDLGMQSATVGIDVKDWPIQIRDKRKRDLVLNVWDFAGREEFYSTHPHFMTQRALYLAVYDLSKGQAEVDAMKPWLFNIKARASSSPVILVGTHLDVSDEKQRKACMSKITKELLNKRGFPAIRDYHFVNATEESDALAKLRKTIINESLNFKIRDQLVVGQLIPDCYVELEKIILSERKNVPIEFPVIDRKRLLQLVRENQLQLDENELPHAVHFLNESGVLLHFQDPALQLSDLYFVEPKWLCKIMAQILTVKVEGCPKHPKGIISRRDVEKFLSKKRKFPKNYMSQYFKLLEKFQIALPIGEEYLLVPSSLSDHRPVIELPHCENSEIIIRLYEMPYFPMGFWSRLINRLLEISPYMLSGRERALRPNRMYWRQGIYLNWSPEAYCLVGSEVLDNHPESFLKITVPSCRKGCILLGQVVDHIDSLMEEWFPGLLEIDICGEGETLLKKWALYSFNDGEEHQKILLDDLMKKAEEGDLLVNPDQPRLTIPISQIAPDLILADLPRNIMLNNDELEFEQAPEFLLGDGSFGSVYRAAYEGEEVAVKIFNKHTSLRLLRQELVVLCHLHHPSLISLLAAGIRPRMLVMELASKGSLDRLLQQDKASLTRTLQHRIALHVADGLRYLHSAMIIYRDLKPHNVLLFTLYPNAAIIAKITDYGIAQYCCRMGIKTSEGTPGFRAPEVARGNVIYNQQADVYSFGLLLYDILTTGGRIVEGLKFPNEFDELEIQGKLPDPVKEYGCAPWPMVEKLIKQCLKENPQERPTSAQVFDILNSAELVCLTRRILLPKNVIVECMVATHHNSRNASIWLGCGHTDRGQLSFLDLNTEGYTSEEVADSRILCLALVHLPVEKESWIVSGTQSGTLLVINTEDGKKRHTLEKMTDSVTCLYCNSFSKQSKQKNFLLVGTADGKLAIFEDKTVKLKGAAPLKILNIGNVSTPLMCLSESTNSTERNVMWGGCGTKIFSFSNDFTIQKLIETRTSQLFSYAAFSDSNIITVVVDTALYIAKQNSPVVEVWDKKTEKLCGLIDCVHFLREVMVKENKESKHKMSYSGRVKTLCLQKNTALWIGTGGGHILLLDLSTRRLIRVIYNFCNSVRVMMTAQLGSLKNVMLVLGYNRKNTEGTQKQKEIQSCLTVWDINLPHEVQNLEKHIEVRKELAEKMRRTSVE
# NUAK1 = target: T2, NUAK1 (Homo sapiens, UniProt O60285); assay: Invitrogen SelectScreen biochemical assay
# T2 sequence (O60285 1-661): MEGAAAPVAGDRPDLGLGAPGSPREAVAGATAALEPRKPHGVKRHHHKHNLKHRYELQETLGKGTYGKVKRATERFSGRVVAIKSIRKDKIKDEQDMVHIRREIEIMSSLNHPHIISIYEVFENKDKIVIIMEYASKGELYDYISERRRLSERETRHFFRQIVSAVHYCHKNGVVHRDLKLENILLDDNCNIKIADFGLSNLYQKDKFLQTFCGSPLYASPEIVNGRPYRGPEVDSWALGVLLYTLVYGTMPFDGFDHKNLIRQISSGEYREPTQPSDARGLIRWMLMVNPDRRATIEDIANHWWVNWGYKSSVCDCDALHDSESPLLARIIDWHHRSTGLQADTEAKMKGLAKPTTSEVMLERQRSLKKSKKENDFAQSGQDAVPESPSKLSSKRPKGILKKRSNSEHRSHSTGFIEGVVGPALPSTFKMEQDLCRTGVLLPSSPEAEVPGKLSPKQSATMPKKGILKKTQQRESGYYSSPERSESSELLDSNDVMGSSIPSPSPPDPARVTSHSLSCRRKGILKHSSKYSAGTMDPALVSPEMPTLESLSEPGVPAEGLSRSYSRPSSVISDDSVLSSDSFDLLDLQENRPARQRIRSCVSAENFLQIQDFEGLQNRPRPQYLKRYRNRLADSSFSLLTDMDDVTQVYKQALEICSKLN
# AURKB = AURKB (Homo sapiens, UniProt Q96GD4); assay: Invitrogen SelectScreen biochemical assay
# endogenous LRRK2 = conditions: mice, 100 mg/kg intraperitoneal, 1 h and 2 h time points
# PLK1 = PLK1 (Homo sapiens, UniProt P53350); assay: Invitrogen SelectScreen biochemical assay
# GFP-LRRK1 = assay: Fluorescence microscopy of LRRK1 localisation, HEK 293 stable cells; format: cell-based; conditions: 1 µM, 2 hours
# MAPK7 = MAPK7 (Homo sapiens, UniProt Q13164); assay: KiNativ; format: binding; conditions: hPBMC and mouse brain tissue profiling
# GFP-LRRK2[A2016T+G2019S] [2] = system: GFP-LRRK2[A2016T+G2019S]
# GFP-LRRK2 [A2016T] [3] = assay: Fluorescence microscopy of LRRK2 localisation, HEK 293 stable cells; format: cell-based; conditions: 1 µM, 2 h time course
# DCLK2 = target: T3, DCLK2 (Homo sapiens, UniProt Q8N568); assay: Invitrogen SelectScreen biochemical assay
# T3 sequence (Q8N568 1-766): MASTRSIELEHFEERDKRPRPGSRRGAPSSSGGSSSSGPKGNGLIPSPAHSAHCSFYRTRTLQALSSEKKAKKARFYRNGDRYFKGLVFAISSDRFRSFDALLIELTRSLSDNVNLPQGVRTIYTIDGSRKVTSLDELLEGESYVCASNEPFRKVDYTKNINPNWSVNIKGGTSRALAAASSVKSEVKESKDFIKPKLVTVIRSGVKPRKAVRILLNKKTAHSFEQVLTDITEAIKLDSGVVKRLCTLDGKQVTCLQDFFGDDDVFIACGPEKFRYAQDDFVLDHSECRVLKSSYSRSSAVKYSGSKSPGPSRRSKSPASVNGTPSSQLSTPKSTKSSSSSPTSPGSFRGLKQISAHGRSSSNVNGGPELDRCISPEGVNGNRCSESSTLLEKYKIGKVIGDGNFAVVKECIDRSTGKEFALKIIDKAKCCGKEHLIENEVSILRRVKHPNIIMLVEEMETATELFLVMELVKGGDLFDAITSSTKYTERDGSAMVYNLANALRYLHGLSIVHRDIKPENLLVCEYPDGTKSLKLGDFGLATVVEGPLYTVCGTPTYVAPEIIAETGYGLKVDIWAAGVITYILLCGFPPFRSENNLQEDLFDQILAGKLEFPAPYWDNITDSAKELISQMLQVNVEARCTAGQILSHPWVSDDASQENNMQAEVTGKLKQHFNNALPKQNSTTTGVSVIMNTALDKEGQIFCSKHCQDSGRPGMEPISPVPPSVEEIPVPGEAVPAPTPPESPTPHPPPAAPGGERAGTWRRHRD
# GFP-LRRK2 [A2016T] [4] = system: GFP-LRRK2 [A2016T]
# MKNK2 = MKNK2 (Homo sapiens, UniProt Q9HBH9); assay: Invitrogen SelectScreen biochemical assay
# MYLK = MYLK (Homo sapiens, UniProt Q15746); assay: Invitrogen SelectScreen biochemical assay
# LRRK2 = format: binding; conditions: hPBMC and mouse brain tissue profiling
# DCLK1 = assay: KiNativ; format: binding; conditions: hPBMC and mouse brain tissue profiling
# [5] = system: kinase inactive LRRK2 {D2017A]; format: cell-based; conditions: 1 µM, 2 h
# CHEK2 [6] = target: T4, CHEK2 (Homo sapiens, UniProt O96017); assay: Invitrogen SelectScreen biochemical assay
# Target sequence in this assay (O96017 whole entry, species assumed): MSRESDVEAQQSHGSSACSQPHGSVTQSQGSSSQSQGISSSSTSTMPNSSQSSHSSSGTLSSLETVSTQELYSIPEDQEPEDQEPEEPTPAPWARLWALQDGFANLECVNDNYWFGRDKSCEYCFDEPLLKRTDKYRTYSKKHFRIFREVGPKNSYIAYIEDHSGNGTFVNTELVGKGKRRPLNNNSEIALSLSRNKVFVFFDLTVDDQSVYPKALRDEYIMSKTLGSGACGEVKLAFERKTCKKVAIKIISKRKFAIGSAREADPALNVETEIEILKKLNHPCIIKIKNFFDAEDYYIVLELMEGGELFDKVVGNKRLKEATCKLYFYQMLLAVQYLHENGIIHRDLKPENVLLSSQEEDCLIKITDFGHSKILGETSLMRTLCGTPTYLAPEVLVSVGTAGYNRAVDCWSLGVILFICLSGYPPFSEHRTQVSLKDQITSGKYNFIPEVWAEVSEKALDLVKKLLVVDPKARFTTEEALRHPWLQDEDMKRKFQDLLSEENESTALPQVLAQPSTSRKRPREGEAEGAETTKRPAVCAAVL
# Pharmacokinetics in mice = format: in vivo; conditions: mouse, plasma, po, 10 mg/kg
# CHEK2 [7] = target: T4, CHEK2; assay: KiNativ; format: binding
# Target sequence in this assay (O96017 whole entry): as the sequence (O96017 whole entry, species assumed) above
# GFP-LRRK2 = assay: Fluorescence microscopy of LRRK2 localisation, HEK 293 stable cells; format: cell-based; conditions: 1 µM, 2 h time course
# GFP-LRRK2[A2016T+G2019S] [8] = assay: as above; format: cell-based; conditions: 1 µM, 2 h time course
# Sequence of PLK1 (P53350 whole entry): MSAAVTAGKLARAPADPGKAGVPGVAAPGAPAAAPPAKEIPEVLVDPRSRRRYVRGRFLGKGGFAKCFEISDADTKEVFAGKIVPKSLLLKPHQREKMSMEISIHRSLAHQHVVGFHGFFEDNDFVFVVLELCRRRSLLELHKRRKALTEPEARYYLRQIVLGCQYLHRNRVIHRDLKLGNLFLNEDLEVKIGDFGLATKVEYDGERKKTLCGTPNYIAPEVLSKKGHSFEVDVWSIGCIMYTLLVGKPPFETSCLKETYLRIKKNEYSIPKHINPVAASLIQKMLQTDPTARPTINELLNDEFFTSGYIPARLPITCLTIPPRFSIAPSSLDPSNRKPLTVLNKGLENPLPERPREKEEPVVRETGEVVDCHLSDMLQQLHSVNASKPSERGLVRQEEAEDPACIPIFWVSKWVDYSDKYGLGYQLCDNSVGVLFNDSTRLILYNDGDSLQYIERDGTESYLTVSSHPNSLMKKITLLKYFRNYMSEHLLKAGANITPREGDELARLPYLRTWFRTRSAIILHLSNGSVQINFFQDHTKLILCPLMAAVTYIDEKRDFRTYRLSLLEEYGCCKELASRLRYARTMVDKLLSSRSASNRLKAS
# Sequence of MYLK (Q15746 whole entry, species assumed): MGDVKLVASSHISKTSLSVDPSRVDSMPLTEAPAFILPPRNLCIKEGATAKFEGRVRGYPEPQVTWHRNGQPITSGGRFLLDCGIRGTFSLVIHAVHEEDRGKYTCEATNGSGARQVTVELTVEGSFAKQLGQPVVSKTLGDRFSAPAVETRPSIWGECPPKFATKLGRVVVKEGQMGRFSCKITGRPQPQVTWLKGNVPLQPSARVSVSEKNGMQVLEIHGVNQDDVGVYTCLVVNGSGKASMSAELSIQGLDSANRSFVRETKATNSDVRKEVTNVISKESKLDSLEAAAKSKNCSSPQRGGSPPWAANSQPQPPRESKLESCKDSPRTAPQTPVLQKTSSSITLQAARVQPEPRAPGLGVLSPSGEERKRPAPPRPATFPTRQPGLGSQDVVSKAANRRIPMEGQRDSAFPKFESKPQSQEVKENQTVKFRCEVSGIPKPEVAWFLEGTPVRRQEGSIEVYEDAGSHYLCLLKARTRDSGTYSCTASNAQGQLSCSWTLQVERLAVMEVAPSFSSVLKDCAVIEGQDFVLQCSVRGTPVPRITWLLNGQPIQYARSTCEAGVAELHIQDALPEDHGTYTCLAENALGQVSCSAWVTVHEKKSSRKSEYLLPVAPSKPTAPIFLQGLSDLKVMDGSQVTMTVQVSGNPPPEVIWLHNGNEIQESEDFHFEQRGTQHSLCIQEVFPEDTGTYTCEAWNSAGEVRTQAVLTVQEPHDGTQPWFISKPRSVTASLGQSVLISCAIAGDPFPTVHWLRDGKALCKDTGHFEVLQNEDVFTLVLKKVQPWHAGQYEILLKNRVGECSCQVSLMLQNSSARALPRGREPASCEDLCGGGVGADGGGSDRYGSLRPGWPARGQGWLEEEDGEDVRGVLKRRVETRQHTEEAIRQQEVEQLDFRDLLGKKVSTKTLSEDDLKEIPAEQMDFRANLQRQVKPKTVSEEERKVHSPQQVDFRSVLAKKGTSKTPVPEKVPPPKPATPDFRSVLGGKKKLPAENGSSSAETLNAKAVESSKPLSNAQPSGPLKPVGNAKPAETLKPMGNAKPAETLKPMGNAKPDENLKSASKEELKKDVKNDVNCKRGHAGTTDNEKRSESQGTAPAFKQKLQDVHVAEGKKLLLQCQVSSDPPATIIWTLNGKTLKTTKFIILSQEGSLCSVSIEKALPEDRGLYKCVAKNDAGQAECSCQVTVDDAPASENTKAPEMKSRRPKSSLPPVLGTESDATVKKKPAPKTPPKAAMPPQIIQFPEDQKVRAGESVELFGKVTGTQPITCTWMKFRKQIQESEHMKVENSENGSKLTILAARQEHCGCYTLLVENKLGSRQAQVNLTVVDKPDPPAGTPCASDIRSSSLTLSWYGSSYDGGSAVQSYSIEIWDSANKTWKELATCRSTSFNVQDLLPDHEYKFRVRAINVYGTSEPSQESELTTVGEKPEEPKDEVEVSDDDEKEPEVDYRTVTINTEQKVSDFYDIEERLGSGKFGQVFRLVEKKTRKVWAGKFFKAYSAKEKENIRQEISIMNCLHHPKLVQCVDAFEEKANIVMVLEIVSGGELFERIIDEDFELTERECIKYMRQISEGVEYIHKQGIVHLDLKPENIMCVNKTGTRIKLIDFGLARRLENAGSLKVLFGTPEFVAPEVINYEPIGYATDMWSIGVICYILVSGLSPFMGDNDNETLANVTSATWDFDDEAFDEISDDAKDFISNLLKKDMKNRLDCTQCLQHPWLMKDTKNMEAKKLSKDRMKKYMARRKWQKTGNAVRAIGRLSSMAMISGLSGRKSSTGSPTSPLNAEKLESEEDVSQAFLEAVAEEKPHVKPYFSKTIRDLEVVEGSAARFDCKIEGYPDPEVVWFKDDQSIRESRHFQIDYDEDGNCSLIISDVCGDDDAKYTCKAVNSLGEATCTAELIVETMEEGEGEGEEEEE
# Sequence of AURKB (Q96GD4 whole entry, species assumed): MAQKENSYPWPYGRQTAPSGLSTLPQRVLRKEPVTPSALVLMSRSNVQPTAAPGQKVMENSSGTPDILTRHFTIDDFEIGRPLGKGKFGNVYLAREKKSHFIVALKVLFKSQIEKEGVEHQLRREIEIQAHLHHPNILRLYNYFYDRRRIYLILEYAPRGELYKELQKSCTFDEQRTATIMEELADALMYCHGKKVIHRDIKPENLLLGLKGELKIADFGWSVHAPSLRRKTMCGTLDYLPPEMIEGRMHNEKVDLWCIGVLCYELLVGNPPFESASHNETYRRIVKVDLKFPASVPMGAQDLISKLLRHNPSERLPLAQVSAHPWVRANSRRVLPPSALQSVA
# Sequence of MKNK2 (Q9HBH9 whole entry, species assumed): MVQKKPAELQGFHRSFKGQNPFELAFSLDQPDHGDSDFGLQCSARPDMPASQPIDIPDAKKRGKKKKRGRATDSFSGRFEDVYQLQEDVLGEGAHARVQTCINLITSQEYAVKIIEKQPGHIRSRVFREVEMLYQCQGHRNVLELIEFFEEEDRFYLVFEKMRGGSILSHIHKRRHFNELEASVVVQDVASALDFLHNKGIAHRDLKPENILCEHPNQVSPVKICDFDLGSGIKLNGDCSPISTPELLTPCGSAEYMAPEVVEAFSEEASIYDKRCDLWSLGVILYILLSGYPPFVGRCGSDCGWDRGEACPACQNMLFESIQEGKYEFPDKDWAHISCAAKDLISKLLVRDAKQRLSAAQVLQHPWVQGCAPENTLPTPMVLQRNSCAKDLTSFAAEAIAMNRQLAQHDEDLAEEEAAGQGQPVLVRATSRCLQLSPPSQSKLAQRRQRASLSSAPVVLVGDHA
# Sequence of MAPK7 (Q13164 whole entry): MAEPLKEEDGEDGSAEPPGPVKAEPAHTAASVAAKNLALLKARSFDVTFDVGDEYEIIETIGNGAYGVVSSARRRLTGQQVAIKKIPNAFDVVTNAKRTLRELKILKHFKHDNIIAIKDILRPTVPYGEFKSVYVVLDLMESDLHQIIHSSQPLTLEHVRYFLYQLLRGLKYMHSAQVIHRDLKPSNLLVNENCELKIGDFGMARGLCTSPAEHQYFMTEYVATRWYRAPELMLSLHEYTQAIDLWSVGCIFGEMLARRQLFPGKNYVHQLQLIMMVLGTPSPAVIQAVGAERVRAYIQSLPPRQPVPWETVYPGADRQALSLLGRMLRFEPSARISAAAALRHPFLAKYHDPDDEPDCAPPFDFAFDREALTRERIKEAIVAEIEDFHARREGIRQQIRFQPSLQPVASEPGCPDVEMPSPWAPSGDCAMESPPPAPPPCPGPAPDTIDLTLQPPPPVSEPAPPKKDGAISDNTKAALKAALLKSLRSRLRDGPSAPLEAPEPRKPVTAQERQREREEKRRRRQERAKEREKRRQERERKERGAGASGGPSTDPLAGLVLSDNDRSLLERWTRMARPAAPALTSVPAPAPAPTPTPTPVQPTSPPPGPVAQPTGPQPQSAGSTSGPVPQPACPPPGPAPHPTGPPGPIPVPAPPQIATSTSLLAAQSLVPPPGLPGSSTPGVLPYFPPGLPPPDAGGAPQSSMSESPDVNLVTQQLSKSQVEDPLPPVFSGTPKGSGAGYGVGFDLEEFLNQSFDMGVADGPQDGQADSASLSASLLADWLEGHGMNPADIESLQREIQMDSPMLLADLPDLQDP
structure (smiles),measurement,setting,value
Cc1cncc2cccc(S(=O)(=O)N3CCCNC[C@@H]3C)c12 [H-1152],fold less sensitive to inhibitor,[1],32 fold
CCN(CC)CCNC(=O)c1c(C)[nH]c(/C=C2\C(=O)Nc3ccc(F)cc32)c1C [sunitinib],fold less sensitive to inhibitor,[1],12 fold
COc1cc(C(=O)N2CCC(N3CCN(C)CC3)CC2)ccc1Nc1ncc2c(n1)N(C)c1ccccc1C(=O)N2C [LRRK2-IN-1],IC50,NUAK1,> 1000 nM
same,IC50,AURKB,> 1000 nM
same,Ser910/Ser935 dephosphorylation of LRRK2 in the kidney,endogenous LRRK2,complete Ser910/Ser935 dephosphorylation
same,dephosphorylation of LRRK2 Ser910 or Ser935 in brain,endogenous LRRK2,no dephosphorylation
same,IC50,PLK1,> 1000 nM
same,localization of LRRK1,GFP-LRRK1,does not change
same,inhibition in KiNativ profiling,MAPK7,confirmed inhibition
same,dephosphorylation of Ser910/Ser935,GFP-LRRK2[A2016T+G2019S] [2],failed to induce dephosphorylation
same,localization of LRRK2,GFP-LRRK2 [A2016T] [3],did not affect the localization
same,IC50,DCLK2,45 nM
same,dephosphorylation of Ser910/Ser935,GFP-LRRK2 [A2016T] [4],failed to induce dephosphorylation
same,IC50,MKNK2,> 1000 nM
same,IC50,MYLK,> 1000 nM
same,inhibition in KiNativ profiling,LRRK2,confirmed inhibition
same,inhibition in KiNativ profiling,DCLK1,confirmed inhibition
same,dephosphorylation of Ser910/Ser935,[5],did not induce significant dephosphorylation
same,IC50,CHEK2 [6],> 1000 nM
same,AUC(0-inf),Pharmacokinetics in mice,14800 ng·h/mL
same,bioavailability,Pharmacokinetics in mice,49.3%
same,IC50,CHEK2 [7],> 1000 nM
same,localization of LRRK2 (accumulation into aggregate structures),GFP-LRRK2,significant accumulation
same,localization of LRRK2,GFP-LRRK2[A2016T+G2019S] [8],did not affect the localization
